Measured values reported in the NIST ThermoML archive (doi:10.1021/acs.jced.9b00776).
± gives the expanded uncertainty stated by the source.

Key:
[1] = for mass density / viscosity: 100.9 kPa, Liquid; for mass density: Vibrating tube method; for viscosity: Cone and plate viscometry; for Triple point temperature: Crystal; for Triple point temperature / Glass transition temperature: DSC
[2] = Molar enthalpy of transition or fusion; conditions: Crystal; DSC

Row | SMILES | mass density ([1]; 293.15 K) [kg/m3] | viscosity ([1]; 293.2 K) [mPa·s] | mass density ([1]; 298.15 K) [kg/m3] | viscosity ([1]; 298.2 K) [mPa·s] | mass density ([1]; 303.15 K) [kg/m3] | viscosity ([1]; 303.2 K) [mPa·s] | mass density ([1]; 313.15 K) [kg/m3] | viscosity ([1]; 313.2 K) [mPa·s] | mass density ([1]; 323.15 K) [kg/m3] | viscosity ([1]; 323.2 K) [mPa·s] | mass density ([1]; 333.15 K) [kg/m3] | viscosity ([1]; 333.2 K) [mPa·s] | mass density ([1]; 343.15 K) [kg/m3] | viscosity ([1]; 343.2 K) [mPa·s] | mass density ([1]; 353.15 K) [kg/m3] | viscosity ([1]; 353.2 K) [mPa·s] | Triple point temperature [1] [K] | Molar enthalpy of transition or fusion [2] [kcal/mol] | Glass transition temperature [1] [°C]
1 | CC(C)[n+]1ccn(C)c1.O=S(=O)([N-]S(=O)(=O)C(F)(F)F)C(F)(F)F | 1481.9 ± 2 | 58.3 ± 4.7 | 1476.8 ± 2 | 45.5 ± 3.7 | 1472 ± 2 | 36.9 ± 3 | 1462.5 ± 2 | 24.5 ± 2 | 1452.4 ± 2 | 19.3 ± 1.6 | 1442.9 ± 2 | 14.5 ± 1.2 | 1433.4 ± 2 | 11.2 ± 0.9 | 1423.7 ± 2 | 8.9 ± 0.7 | 283.5 ± 1.8 | 5.78 ± 0.167 | 
2 | C[n+]1ccn(C(C)(C)C)c1.O=S(=O)([N-]S(=O)(=O)C(F)(F)F)C(F)(F)F | 1451.5 ± 2 | 167.3 ± 14 | 1446.6 ± 2 | 121.4 ± 10 | 1442 ± 2 | 91.5 ± 7.4 | 1432.8 ± 2 | 55.6 ± 4.5 | 1423.1 ± 2 | 37.5 ± 3 | 1413.8 ± 2 | 26.2 ± 2.1 | 1404.5 ± 2 | 19 ± 1.5 | 1395 ± 2 | 14.5 ± 1.2 | 280.4 ± 1.8 | 5.47 ± 0.167 | 
3 | CC(C)[n+]1ccn(C)c1.F[P-](F)(F)(F)(F)F [1-methyl-3-(1-methylethyl)imidazolium hexafluorophosphate] |  |  |  |  |  |  |  |  |  |  |  |  |  |  |  |  | 374 ± 1.8 | 3.75 ± 0.12 | 
4 | C[n+]1ccn(C(C)(C)C)c1.[I-] [1-tert-butyl-3-methylimidazolium iodide] |  |  |  |  |  |  |  |  |  |  |  |  |  |  |  |  | 432.7 ± 1.8 | 3.63 ± 0.12 | 
5 | CC(C)[n+]1ccn(C)c1.[I-] [1-methyl-3-(1-methylethyl)imidazolium iodide] |  |  |  |  |  |  |  |  |  |  |  |  |  |  |  |  | 383.4 ± 1.8 | 3.9 ± 0.12 | 
6 | CC(C)n1cc[n+](C)c1.O=S(=O)([N-]S(=O)(=O)C(F)(F)C(F)(F)F)C(F)(F)C(F)(F)F | 1556.7 ± 2 | 172.6 ± 14 | 1551.3 ± 2 | 121.4 ± 10 | 1546 ± 2 | 91.7 ± 7.5 | 1535.5 ± 2 | 53 ± 4.3 | 1524.6 ± 2 | 38 ± 3.1 | 1514 ± 2 | 26.4 ± 2.1 | 1503.5 ± 2 | 19.1 ± 1.5 | 1492.8 ± 2 | 14.4 ± 1.2 |  |  | -75.7 ± 1.8
7 | C[n+]1ccn(C(C)(C)C)c1.O=S(=O)([N-]S(=O)(=O)C(F)(F)C(F)(F)F)C(F)(F)C(F)(F)F | 1530.8 ± 2 | 571.1 ± 53 | 1525.2 ± 2 | 367.2 ± 33 | 1519.9 ± 2 | 246.7 ± 21 | 1509.6 ± 2 | 126.1 ± 10 | 1498.9 ± 2 | 80.9 ± 6.6 | 1488.6 ± 2 | 50.7 ± 4.1 | 1478.4 ± 2 | 33.9 ± 2.7 | 1467.8 ± 2 | 23.8 ± 1.9 | 294.3 ± 1.8 | 3.99 ± 0.12 | -58.0 ± 1.8
8 | C[n+]1ccn(C(C)(C)C)c1.F[P-](F)(F)(F)(F)F [1-tert-butyl-3-methylimidazolium hexafluorophosphate] |  |  |  |  |  |  |  |  |  |  |  |  |  |  |  |  | 421 ± 1.8 | 5.52 ± 0.167 | 
